Test results reported in article PMC9537572, “Elucidation of the binding mechanism of astragaloside IV derivative with human serum albumin and its cardiotoxicity in zebrafish embryos” (Frontiers in Pharmacology, 2022).
Values joined by “and” are separate entries in the source; they are usually repeats but may differ in a detail not shown here. Equal entries are not always repeated. “Also recorded” adds a separate entry of the source.

What was measured:
HSA [1] = target: T1, HSA (Homo sapiens, UniProt P02768); assay: Plasma protein binding rate by equilibrium dialysis and UHPLC-MS/MS; assay type: in vitro ADME
T1 sequence (P02768 25-609): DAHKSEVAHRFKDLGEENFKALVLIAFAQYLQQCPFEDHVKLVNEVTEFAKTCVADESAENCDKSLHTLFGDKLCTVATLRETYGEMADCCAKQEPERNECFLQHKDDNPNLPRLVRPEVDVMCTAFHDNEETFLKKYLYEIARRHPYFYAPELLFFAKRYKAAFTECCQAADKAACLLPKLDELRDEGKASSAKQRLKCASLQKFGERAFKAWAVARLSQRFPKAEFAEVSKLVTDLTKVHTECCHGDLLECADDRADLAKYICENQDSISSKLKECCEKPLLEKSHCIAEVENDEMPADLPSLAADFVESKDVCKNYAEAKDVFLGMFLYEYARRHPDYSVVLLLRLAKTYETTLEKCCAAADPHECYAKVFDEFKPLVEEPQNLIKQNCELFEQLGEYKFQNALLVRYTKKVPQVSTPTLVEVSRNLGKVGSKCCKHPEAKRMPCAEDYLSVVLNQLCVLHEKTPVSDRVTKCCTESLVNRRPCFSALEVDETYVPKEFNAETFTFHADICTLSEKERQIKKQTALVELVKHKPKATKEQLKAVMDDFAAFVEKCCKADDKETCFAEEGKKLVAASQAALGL
Method: The binding rate of AGS IV/LS-102 and HSA was determined using a slightly modified equilibrium dialysis method ([Metsu et al., 2020]). […] The stock solutions of HSA (0.5 ml) and drug group (0.5 ml) were placed in a dialysis membrane bag that was ligated at both ends and then immersed in a test tube filled with 50 ml of PBS solution for 72 h at 4 °C. After equilibrium, a 0.5-ml solution of outer dialysate and internal dialysate was collected into a 2-ml EP tube, and 10 µL IS (digoxin, 0.1 mg/ml) solution was added to each tube. Both samples were added to 1.5 ml of acetonitrile and vortexed for 3 min, and then the samples were separated via centrifugation at 18,000 × g for 20 min. The supernatants were transferred to another EP tube and dried under a nitrogen stream. The residue was redissolved in 1 ml methanol, sonicated for 2 min, vortexed for 3 min, and centrifuged at 18,000 × g for 10 min. The supernatant was filtered with a 0.22 µm microporous syringe filter in a 2 ml sample vial, and 1 µL was injected into the UHPLC-MS/MS system for analysis. The plasma protein binding rate was calculated according to the following formula ([Talbert et al., 2002]): Plasma binding rate=Internal drug concentration−External drug concentration/Initial drug concentration ×100%

HSA [2] = target: T1, HSA; assay: Site marker competitive experiments (warfarin, ibuprofen) by equilibrium dialysis; assay type: in vitro ADME; details: drug 0.476 mg/ml, n = 3, read-out: Plasma protein binding (converted)
Method: The site marker competitive experiments were performed using two classical site probes, warfarin and ibuprofen, which were selected as the markers of subdomain IIA (site I) and subdomain IIIA (site II) separately of HAS ([Ghuman et al., 2005]). The procedure was consistent with the method described in section 2.5, except that the concentrations of AGS IV and LS-102 were both fixed at 0.476 mg/ml, while the external dialysis solution was changed to contain the probe with a final concentration of 0, 0.06, 0.3, 1.2 mg/ml PBS solution. Briefly, the AGS IV/LS-102 HSA mixture (0.5 ml drug and 0.5 ml HSA) was separately incubated with three different concentrations of probe to evaluate the effects of warfarin or ibuprofen on drug-protein binding influence. Three replicates of each concentration were prepared. After equilibrium dialysis, the internal and external dialysates were analyzed by UHPLC-MS/MS.

zebrafish embryos [3] = assay: Maximum tolerated concentration of LS-102 in zebrafish; assay type: in vivo; details: for Mortality: 3 dpf zebrafish, n=30; for Deaths: of 30 zebrafish
Method: Zebrafish embryos at 3 dpf were randomly selected and treated with LS-102 at concentrations of 1, 10, 100, 250 and 500 μg/ml in water, while the control group was left untreated. The mortality of zebrafish was recorded for each experimental group after 24 h of treatment.

zebrafish embryos [4] = assay: Astemizole-induced toxicity in zebrafish heart development; assay type: in vivo; details: for Mortality: cotreated with 4 µM astemizole 48 h from 2 hpf
Method: A total of 270 wild-type AB zebrafish at 2 h post-fertilization (2 hpf) were randomly selected, and 30 zebrafish were plated in each well of a six-well plates. The concentrations of LS-102 were 27.8, 83.3 and 250 µg/ml, while that of AGS IV was 250 µg/mL. A normal control group (fish culture water) and a 4 µM astemizole model control group were also established. After LS-102 and AGS IV were cotreated with astemizole for 48 h, zebrafish heart development was observed and photographed under a microscope to evaluate the ameliorative effect of LS-102 and AGS IV on astemizole-induced toxicity in zebrafish heart development.

zebrafish = assay: Arachidonic acid-induced thrombosis in zebrafish; assay type: in vivo; details: for Staining intensity of cardiac red blood cells (pixels) (mean ± se): 3 h pretreatment, arachidonic acid 1.5 h, n = 10; for Antithrombotic effect (%): vs. model group, arachidonic acid-induced thrombosis
Method: A total of 270 melanin allele mutant translucent albino strain zebrafish at 3 dpf were randomly selected, with 30 zebrafish per well in six-well plates. The concentrations of LS-102 were 6.25, 12.5, 25, 50, and 100 µg/ml, while that of AGS IV was 100 µg/ml, and the positive control drug aspirin was 25 µg/ml. After treatment with LS-102 and AGS IV for 3 h, arachidonic acid aqueous solution was administered for 1.5 h to induce a thrombosis model in zebrafish in all experimental groups except the normal group. After staining with o-anisidine, zebrafish were randomly selected from each experimental group and observed under a dissecting microscope and photographed. Data were collected to qualitatively evaluate thrombosis in zebrafish, and the intensity of cardiac erythrocyte staining (length of venous thrombus vs. number of cardiac erythrocytes) in zebrafish was analyzed and counted to establish, the preventive effect of LS-102 and AGS IV with aspirin on thrombosis in zebrafish. The formula was calculated as follows:
Thromboprophylactic effect (%) = S (drug administration group)−S (model group)/S (nomal control group)−S (model group)×100%

mice = details: even at high treatment doses, ref Qing et al., 2019, Sun et al.; cited from earlier work
[5] = 83.3 µg/mL, 4 µM astemizole, 48 h, n=30

In the case of CC(C)(O)C1CCC(C)(C2C(O)CC3(C)C4CC(OC5OC(C(=O)O)C(O)C(O)C5O)C5C(C)(C)C(OC6OCC(O)C(O)C6O)CCC56CC46CCC23C)O1 (stereo not shown) [LS-102, astragalosidic acid], the “Plasma protein binding rate, range over the concentrations” value (HSA [1]; across the three concentrations (0.238-0.714 mg/ml)) is reported as 68.24%–69.35, the fraction unbound at 72 h (HSA [1]; human, plasma, across the three concentrations (0.238-0.714 mg/ml), read-out: Plasma protein binding rate, range over the concentrations) is reported as 0.306 to 0.331 and the fraction unbound at 72 h, 0.238 mg/ml (HSA [1]; human, drug 0.238 mg/ml, equilibrium dialysis 72 h at 4 °C, n = 3, read-out: Protein binding rate (%, Mean±SD) (converted)) is reported as 0.318. The fraction unbound at 72 h, 0.476 mg/ml (HSA [1]; human, drug 0.476 mg/ml, equilibrium dialysis 72 h at 4 °C, n = 3, read-out: Protein binding rate (%, Mean±SD) (converted)) was 0.306, the fraction unbound at 72 h, 0.714 mg/ml (HSA [1]; human, drug 0.714 mg/ml, equilibrium dialysis 72 h at 4 °C, n = 3, read-out: Protein binding rate (%, Mean±SD) (converted)) was 0.314 and the fraction unbound at 72 h, 0.476 mg/ml (HSA [2]; with ibuprofen 0.06 mg/ml) was 0.368. The fraction unbound at 72 h, 0.476 mg/ml (HSA [2]; with ibuprofen 0.3 mg/ml) was 0.248, the fraction unbound at 72 h, 0.476 mg/ml (HSA [2]; with ibuprofen 1.2 mg/ml) was 0.28 and the fraction unbound at 72 h, 0.476 mg/ml (HSA [2]; with warfarin 0.06 mg/ml) was 0.467. It also gave a fraction unbound at 72 h, 0.476 mg/ml (HSA [2]; with warfarin 0.3 mg/ml) of 0.411, a fraction unbound at 72 h, 0.476 mg/ml (HSA [2]; with warfarin 1.2 mg/ml) of 0.453 and a fraction unbound at 72 h, 0.476 mg/ml (HSA [2]; without site markers) of 0.331. The Mortality (zebrafish embryos [3]; 1 µg/mL, 24 h) was 0%, the Deaths (zebrafish embryos [3]; 1 µg/mL, 24 h) was 0 tails and the Mortality (zebrafish embryos [3]; 10 µg/mL, 24 h) was 0%. For the same compound, the Deaths (zebrafish embryos [3]; 10 µg/mL, 24 h) was 0 tails, the Mortality (zebrafish embryos [3]; 100 µg/mL, 24 h) was 0% and the Deaths (zebrafish embryos [3]; 100 µg/mL, 24 h) was 0 tails. It also gave a Mortality (zebrafish embryos [3]; 250 µg/mL, 24 h) of 13.3%, a Deaths (zebrafish embryos [3]; 250 µg/mL, 24 h) of 4 tails and a Mortality (zebrafish embryos [3]; 500 µg/mL, 24 h) of 100%. The Deaths (zebrafish embryos [3]; 500 µg/mL, 24 h) was 30 tails, the “Mortality (in words)” value (zebrafish embryos [3]; concentrations ranging from 1 to 100 µg/ml, 24 h) was “no mortality” and the “Maximum-tolerated concentration (MTC)” value (zebrafish embryos [3]; zebrafish 3 dpf, 24 h treatment) was 100 µg/mL. The Mortality (zebrafish embryos [4]; 27.8 µg/mL, n=30) was 0%, the “Phenotype: absence of blood flow (share of zebrafish)” value (zebrafish embryos [4]; [5]) was 26.7% and the “Phenotype: pericardial oedema, venous sinus stasis (share of zebrafish)” value (zebrafish embryos [4]; [5]) was 83.3%. The “Phenotype: slowed blood flow (share of zebrafish)” value (zebrafish embryos [4]; [5]) was 56.7%, the Mortality (zebrafish embryos [4]; 83.3 µg/mL, n=30) was 0% and the “Phenotype (in words)” value (zebrafish embryos [4]; 250 µg/mL, 4 µM astemizole, 48 h, n=30) was “no significant toxicity; also recorded: No abnormalities seen”. The Mortality (zebrafish embryos [4]; 250 µg/mL, n=30) was 30%, the “Effect on the developmental toxicity of zebrafish hearts induced by astemizole (in words)” value (zebrafish embryos [4]; 83.3 and 250 µg/ml, 4 µM astemizole, 48 h) was “ameliorating effect” and the “Staining intensity of cardiac red blood cells (pixels) (mean ± se)” value (shortened to “Staining intensity … (mean ± se)”) (zebrafish; 6.25 µg/ml) was 1280 pixels and 1280 ± 119 pixels. For the same compound, the “Antithrombotic effect (%)” value (zebrafish; 6.25 µg/ml) was −13%, the “Staining intensity … (mean ± se)” value (zebrafish; 12.5 µg/ml) was 1521 pixels and 1521 ± 72 pixels and the “Antithrombotic effect (%)” value (zebrafish; 12.5 µg/ml) was 14%. The “Staining intensity … (mean ± se)” value (zebrafish; 25 µg/ml) was 1597 pixels and 1597 ± 65 pixels, the “Antithrombotic effect (%)” value (zebrafish; 25 µg/ml) was 22% and the “Staining intensity … (mean ± se)” value (zebrafish; 50 µg/ml) was 1796 pixels and 1796 ± 54 pixels. For the same compound, the “Antithrombotic effect (%)” value (zebrafish; 50 µg/ml) was 44%, the “Staining intensity … (mean ± se)” value (zebrafish; 100 µg/ml) was 1950 pixels and 1950 ± 33 pixels and the “Antithrombotic effect (%)” value (zebrafish; 100 µg/ml) was 61%. For the same compound, the “Abnormalities or death in mice (in words)” value (mice) was “no abnormalities or death”.
